Assay [1] deals with KYSE-150 esophageal carcinoma cell line. Put plainly: In vitro cell-based assay: cellular proliferation via BrdU incorporation (ELISA). On the set-up: species or system human. Conditions: KYSE-150, 168 hours compound incubation. Here is the method: The primary cellular assay for JMJD2C inhibition is an assay which measures cellular proliferation via Bromodeoxyuridine (BrdU) incorporation after 168 hours of compound incubation. Cell lines tested include the JMJD2C gene amplified cell line KYSE-150. This is a quantitative ELISA assay measuring DNA incorporation of BrdU during S-phase as a direct readout of cellular proliferation.
Assay Principle: This is a colorimetric immunoassay for the quantification of cell proliferation. Cells treated for 168 hours with test compounds are assayed for their ability to go through S-phase as a measure of their proliferative potential.
Assay Method: The human KYSE-150 (SMAD4 mut, TP53 mut) esophageal carcinoma cell line was seeded at 2,000 cells/well on a 96-well tissue culture treated plate. After an overnight incubation, cells were treated with compound in an 11-point dilution series with final concentrations ranging from 100 μM to 2 nM. Cells were then incubated in the presence of compound for 168 hours. After compound incubation the cells were assayed using a BrdU Cell Proliferation ELISA (Roche). The cells were first incubated with BrdU labeling reagent for 2 hours. After 2 hours, the BrdU incorporated cells were fixed and denatured, probed with an anti-BrdU-Peroxidase antibody for 1.5 hours and washed. Finally, a tetramethylbenzidine peroxidase substrate was added to each well for 15 minutes followed by a H2SO4 stop solution. The plate was read at 450 nm, and the raw optical density data was transferred into XLFit (IDBS) for IC50 calculation using the formula: fit=(D+((Vmax*(x^n))/((x^n)+(Km^n))))
In general terms: Dividing cells build labelled thymidine or BrdU into new DNA.

For the next assay, the target named is JMJD2C (Homo sapiens (Human), UniProt Q9H3R0). Put plainly: In vitro enzyme inhibition assay for JMJD2C activity (TR-FRET). It counts as biochemical. Here is the method:
This assay determines the ability of a test compound to inhibit JMJD2C demethylase activity. Baculovirus expressed JMJD2C (GenBank Accession #BC143571, AA 2-372) was purchased from BPS Bioscience (Cat#50105).
The ability of test compounds to inhibit the activity of JMJD2C was determined in 384-well plate format under the following reaction conditions: 0.3 nM JMJD2C, 300 nM H3K9me3-biotin labeled peptide (Anaspec cat #64360), 2 μM alpha-ketoglutaric acid in assay buffer of 50 mM HEPES, pH7.3, 0.005% Brij35, 0.5 mM TCEP, 0.2 mg/ml BSA, 50 μM sodium L-ascorbate, and 2 μM ammonium iron(II) sulfate. Reaction product was determined quantitatively by TR-FRET after the addition of detection reagent Phycolink Streptavidin-allophycocyanin (Prozyme) and Europium-anti-di-methylated histone H3 lysine 9 (H3K9me2) antibody (PerkinElmer) in the presence of 5 mM EDTA in LANCE detection buffer (PerkinElmer) at a final concentration of 50 nM and 1 nM, respectively.
The assay reaction was initiated by the following: 2 μl of the mixture of 900 nM H3K9me3-biotin labeled peptide and 6 μM alpha-ketoglutaric acid with 2 μl of 11-point serial diluted inhibitor in 3% DMSO were added to each well of the plate, followed by the addition of 2 μl of 0.9 nM JMJD2C to initiate the reaction. The reaction mixture was incubated at room temperature for 30 minutes, and terminated by the addition of 6 μl of 5 mM EDTA in LANCE detection buffer containing 100 nM Phycolink Streptavidin-allophycocyanin and 2 nM Europium-anti-H3K9me2 antibody. Plates were read by EnVisionMultilabel Reader in TR-FRET mode (excitation at 320 nm, emission at 615 nm and 665 nm) after 1 hour incubation at room temperature. A ratio was calculated (665/615) for each well and fitted to determine inhibition constant (IC50).
(In TR-FRET formats the signal depends on donor and acceptor labels being close together.)

Sequence of JMJD2C (Q9H3R0 2-372): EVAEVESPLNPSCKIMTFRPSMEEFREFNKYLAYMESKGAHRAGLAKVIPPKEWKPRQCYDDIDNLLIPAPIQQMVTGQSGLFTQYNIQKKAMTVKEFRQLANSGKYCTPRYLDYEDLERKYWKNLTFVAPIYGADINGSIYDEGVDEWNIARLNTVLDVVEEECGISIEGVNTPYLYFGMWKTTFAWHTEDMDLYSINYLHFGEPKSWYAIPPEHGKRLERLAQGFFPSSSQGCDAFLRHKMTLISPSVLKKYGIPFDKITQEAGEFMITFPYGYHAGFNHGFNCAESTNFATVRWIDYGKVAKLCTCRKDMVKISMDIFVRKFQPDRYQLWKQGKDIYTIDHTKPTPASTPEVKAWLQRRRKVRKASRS

As to `C=Cc1ccc(N(C)c2ccc3c(c2)OCC[C@H]3CNc2cnccc2C(=O)O)cc1` [Example 176, 3-({[(4R)-7-[(4-ethenylphenyl)(methyl)amino]-3,4-dihydro-2H-1-benzopyran-4-yl]methyl}amino)pyridine-4-carboxylic acid], the values for the IC50 (in assay [1] (Homo sapiens); at JMJD2C) were at most 100 nM and 100 to 1000 nM, respectively.

On to `COc1ccc(N(C)c2ccc3c(c2)CCC[C@H]3CNc2cnccc2C(=O)O)cn1` [Example 13, 3-({[(1R)-6-[(6-methoxypyridin-3-yl)(methyl)amino]-1,2,3,4-tetrahydronaphthalen-1-yl]methyl}amino)pyridine-4-carboxylic acid], for which the half-maximal inhibitory concentration (IC50) (in assay [1] (Homo sapiens); at JMJD2C) was 100 to 1000 nM in each case.

`O=C(O)c1ccncc1NC[C@@H]1CCOc2cc(-c3ccccc3C(F)(F)F)ccc21` [Example 46, 3-({[(4R)-7-[2-(trifluoromethyl)phenyl]-3,4-dihydro-2H-1-benzopyran-4-yl]methyl}amino)pyridine-4-carboxylic acid]: the figures for the half-maximal inhibitory concentration (IC50) (in assay [1] (Homo sapiens); against JMJD2C) were at most 100 nM and 100 to 1000 nM, respectively.

On to `CN(c1ccc(N2CCC2)cc1)c1ccc2c(c1)CCC[C@H]2CNc1cnccc1C(=O)O` [Example 180, 3-({[(1R)-6-{[4-(azetidin-1-yl)phenyl](methyl)amino}-1,2,3,4-tetrahydronaphthalen-1-yl]methyl}amino)pyridine-4-carboxylic acid], for which the half-inhibitory concentration (IC50) (in general, the concentration needed to halve the response being measured) in assay [1] (Homo sapiens) is at most 100 nM; at JMJD2C it was 100 to 1000 nM.

Regarding `O=C(O)c1ccncc1NC[C@@H]1CCCc2cc(N(CCO)c3ccccc3)ccc21` [Example 147, 3-({[(1R)-6-[(2-hydroxyethyl)(phenyl)amino]-1,2,3,4-tetrahydronaphthalen-1-yl]methyl}amino)pyridine-4-carboxylic acid], the IC50 (in assay [1] (Homo sapiens); against JMJD2C) was 100 to 1000 nM in each case.

As for `O=C(O)c1ccncc1NCC1CCCc2cc(OCC3CCOCC3)ccc21` (centres unmarked) [Example 63, 3-({[6-(oxan-4-ylmethoxy)-1,2,3,4-tetrahydronaphthalen-1-yl]methyl}amino)pyridine-4-carboxylic acid], the values for the IC50 (in assay [1] (Homo sapiens); against JMJD2C) were over 10000 nM and 100 to 1000 nM, respectively.

As to `O=C(O)c1ccncc1NCC1CCOc2cc(-c3ccc(C(F)(F)F)cc3)ccc21` (centres unmarked) [Example 27, 3-[({7-[4-(trifluoromethyl)phenyl]-3,4-dihydro-2H-1-benzopyran-4-yl}methyl)amino]pyridine-4-carboxylic acid], the IC50 (in assay [1] (Homo sapiens); against JMJD2C) was 1000 to 10000 nM throughout.

On to `CN(c1ccc(OCC2CC2)cc1)c1ccc2c(c1)OCC[C@H]2CNc1cnccc1C(=O)O` [Example 211, 3-({[(4R)-7-{[4-(cyclopropylmethoxy)phenyl](methyl)amino}-3,4-dihydro-2H-1-benzopyran-4-yl]methyl}amino)pyridine-4-carboxylic acid], for which the IC50 in assay [1] (Homo sapiens) was at most 100 nM; at JMJD2C, 100 to 1000 nM.

Consider `CCN(c1ccccc1)c1ccc2c(c1)CCC[C@H]2CNc1cnccc1C(=O)O` [Example 10, 3-({[(1R)-6-[ethyl(phenyl)amino]-1,2,3,4-tetrahydronaphthalen-1-yl]methyl}amino)pyridine-4-carboxylic acid], for which the IC50 in assay [1] (Homo sapiens) is at most 100 nM; against JMJD2C, 100 to 1000 nM.

Consider `CN(c1ccc(F)cc1)c1ccc2c(c1)CCC[C@H]2CNc1cnccc1C(=O)O` [Example 8, 3-({[(1R)-6-[(4-fluorophenyl)(methyl)amino]-1,2,3,4-tetrahydronaphthalen-1-yl]methyl}amino)pyridine-4-carboxylic acid], for which the IC50 is at most 100 nM in assay [1] (Homo sapiens) and 100 to 1000 nM at JMJD2C.

`COc1cc(N(C)c2ccc3c(c2)CCC[C@H]3CNc2cnccc2C(=O)O)ccc1F` [Example 114, 3-({[(1R)-6-[(4-fluoro-3-methoxyphenyl)(methyl)amino]-1,2,3,4-tetrahydronaphthalen-1-yl]methyl}amino)pyridine-4-carboxylic acid]: the concentration for half-maximal inhibition (IC50) (in assay [1] (Homo sapiens); at JMJD2C) was 100 to 1000 nM throughout.

Consider `CN(c1ccc(CO)cc1)c1ccc2c(c1)CCC[C@H]2CNc1cnccc1C(=O)O` [Example 158, 3-({[(1R)-6-{[4-(hydroxymethyl)phenyl](methyl)amino}-1,2,3,4-tetrahydronaphthalen-1-yl]methyl}amino)pyridine-4-carboxylic acid], for which the IC50 (in assay [1] (Homo sapiens); on JMJD2C) was 100 to 1000 nM each time.

“3-({[(1R)-6-[cyclopentyl(methyl)amino]-1,2,3,4-tetrahydronaphthalen-1-yl]methyl}amino)pyridine-4-carboxylic acid [Example 133]”: the IC50 in assay [1] lay in the range of 1000 to 10000 nM; on JMJD2C, 100 to 1000 nM.

Turning to `Cc1cccc(N(C)c2ccc3c(c2)OCC[C@H]3CNc2cnccc2C(=O)O)c1` [Example 105, 3-({[(4R)-7-[methyl(3-methylphenyl)amino]-3,4-dihydro-2H-1-benzopyran-4-yl]methyl}amino)pyridine-4-carboxylic acid], the values for the 50% inhibitory concentration (IC50) (in assay [1] (Homo sapiens); on JMJD2C) were at most 100 nM and 100 to 1000 nM, respectively.

For `COc1ccc(F)cc1-c1ccc2c(c1)OCC[C@H]2CNc1cnccc1C(=O)O` [Example 102, 3-({[(4R)-7-(5-fluoro-2-methoxyphenyl)-3,4-dihydro-2H-1-benzopyran-4-yl]methyl}amino)pyridine-4-carboxylic acid], the IC50 (in assay [1] (Homo sapiens); on JMJD2C) was 100 to 1000 nM in each case.

For `Cc1ccc(-c2ccc3c(c2)OCC[C@H]3CNc2cnccc2C(=O)O)cc1` [Example 32, 3-({[(4R)-7-(4-methylphenyl)-3,4-dihydro-2H-1-benzopyran-4-yl]methyl}amino)pyridine-4-carboxylic acid], the 50% inhibitory concentration (IC50) in assay [1] (Homo sapiens) is 1000 to 10000 nM; against JMJD2C it was 100 to 1000 nM.

Turning to `CN(c1ccc(-n2cccn2)cc1)c1ccc2c(c1)OCC[C@H]2CNc1cnccc1C(=O)O` [Example 189, 3-({[(4R)-7-{methyl[4-(1H-pyrazol-1-yl)phenyl]amino}-3,4-dihydro-2H-1-benzopyran-4-yl]methyl}amino)pyridine-4-carboxylic acid], the half-inhibitory concentration (IC50) (in assay [1] (Homo sapiens); against JMJD2C) was 100 to 1000 nM in each case.

As for `COc1cccc(N(C)c2ccc3c(c2)CCC[C@H]3CNc2cnccc2C(=O)O)n1` [Example 121, 3-({[(1R)-6-[(6-methoxypyridin-2-yl)(methyl)amino]-1,2,3,4-tetrahydronaphthalen-1-yl]methyl}amino)pyridine-4-carboxylic acid], the concentration for half-maximal inhibition (IC50) in assay [1] (Homo sapiens) is at most 100 nM; on JMJD2C, 100 to 1000 nM.

Turning to `O=C(O)c1ccncc1NCC1CCCc2c1ccc1c2OCC1` (centres unmarked) [Example 92, 3-({2H,3H,6H,7H,8H,9H-naphtho[1,2-b]furan-6-ylmethyl}amino)pyridine-4-carboxylic acid], the IC50 lay in the range of 1000 to 10000 nM in assay [1] (Homo sapiens) and 100 to 1000 nM against JMJD2C.

Consider `Cc1cc2c(cc1C)C(CNc1cnccc1C(=O)O)CCO2` (centres unmarked) [Example 93, 3-{[(6,7-dimethyl-3,4-dihydro-2H-1-benzopyran-4-yl)methyl]amino}pyridine-4-carboxylic acid], for which the figures for the half-maximal inhibitory concentration (IC50) (in assay [1] (Homo sapiens); on JMJD2C) were 1000 to 10000 nM and 100 to 1000 nM, respectively.

Regarding `CN(c1ccc2c(c1)CCC[C@H]2CNc1cnccc1C(=O)O)c1ccc2ccoc2c1` [Example 135, 3-({[(1R)-6-[(1-benzofuran-6-yl)(methyl)amino]-1,2,3,4-tetrahydronaphthalen-1-yl]methyl}amino)pyridine-4-carboxylic acid], the half-inhibitory concentration (IC50) in assay [1] (Homo sapiens) is at most 100 nM; on JMJD2C, 100 to 1000 nM.

Turning to `CN(c1ccc(CCO)cc1)c1ccc2c(c1)OCC[C@H]2CNc1cnccc1C(=O)O` [Example 207, 3-({[(4R)-7-{[4-(2-hydroxyethyl)phenyl](methyl)amino}-3,4-dihydro-2H-1-benzopyran-4-yl]methyl}amino)pyridine-4-carboxylic acid], the IC50 (in assay [1] (Homo sapiens); against JMJD2C) was 100 to 1000 nM in each case.

The values are drawn from US10106534B2 (CELGENE QUANTICEL RESEARCH, INC., priority 2014, dated 2018).
